{
  "source": "paper PMC8192493",
  "about": "(Journal of medicinal chemistry, 2021)",
  "key": {"[1]": {"tested_on": "VRE 700221 (E. faecium ATCC 700221)", "test": "MIC broth microdilution, VRE 700221", "conditions": "16 h"}, "MRSE 35984 biofilms": {"tested_on": "MRSE 35984 biofilms", "test": "Calgary biofilm device", "conditions": "Staphylococcus epidermidis, read-out: MRSE 35984 MBC"}, "[2]": {"tested_on": "iron uptake genes isdB, sfaA, sbnC, MW0695 in MRSA-1707 biofilms", "conditions": "5 μM; previous work ref 39; cited from earlier work"}, "[3]": {"tested_on": "six MRSA clinical isolates", "test": "MIC assays against MRSA clinical isolates", "format": "cell-based", "conditions": "Staphylococcus aureus, read-out: MIC against six MRSA clinical isolates"}, "J774 macrophages": {"tested_on": "J774 macrophages", "test": "Alamar Blue cytotoxicity, J774 macrophages", "format": "cell-based", "conditions": "IC50 J774 MΦ and HepG2 vs MIC against MRSA, MRSE, VRE strains"}, "[4]": {"tested_on": "iron uptake genes isdB, sfaA, sbnC, MW0695 in MRSA-1707 biofilms", "test": "RT-qPCR of iron uptake genes in MRSA biofilms", "conditions": "established biofilms, 4 h, 1 μM or 1/10 × MBEC"}, "[5]": {"tested_on": "MRSA, MRSE, and VRE strains", "test": "MIC summarised across several Gram-positive strains"}, "[6]": {"tested_on": "M. tuberculosis H37Ra (ATCC 25177)", "test": "MIC assay for Mtb H37Ra", "format": "cell-based", "conditions": "Mycobacterium tuberculosis, ATCC25177|H37RA, 168 h, read-out: MIC Mtb H37Ra"}},
  "note": "“Also recorded” adds a separate entry of the source.",
  "data": [
    {"smiles": "CN[C@H](CC(C)C)C(=O)N[C@H]1C(=O)N[C@@H](CC(N)=O)C(=O)N[C@H]2C(=O)N[C@H]3C(=O)N[C@H](C(=O)N[C@H](C(=O)O)c4cc(O)cc(O)c4-c4cc3ccc4O)[C@H](O)c3ccc(c(Cl)c3)Oc3cc2cc(c3O[C@@H]2O[C@H](CO)[C@@H](O)[C@H](O)[C@H]2O[C@H]2C[C@](C)(N)[C@H](O)[C@H](C)O2)Oc2ccc(cc2Cl)[C@H]1O", "note": "[vancomycin]", "values": [
      {"measurement": "MIC VRE 700221", "setting": "[1]; BHI, 37 °C, d lowest test concentration", "result": ">100", "unit": "µM"},
      {"measurement": "MIC", "setting": "[1]; Enterococcus, ATCC700221|VRE, read-out: MIC VRE 700221", "result": "> 100", "unit": "µM"},
      {"measurement": "MBC", "setting": "MRSE 35984 biofilms", "result": 3, "unit": "µM"}
    ]},
    {"smiles": "O=C(O)CN(CCN(CC(=O)O)CC(=O)O)CC(=O)O", "note": "[EDTA, ethylenediaminetetraacetic acid]", "values": [
      {"measurement": "upregulation of iron uptake genes", "setting": "[2]", "result": "do not upregulate"}
    ]},
    {"smiles": "Oc1c(Br)cc(Br)c2nc3ccccc3nc12", "note": "[HP 3]", "values": [
      {"measurement": "MIC", "setting": "[3]", "result": "1.25 to 2.5", "unit": "µM"}
    ]},
    {"smiles": "CCSc1c(Br)c(O)c2nc3cccc(C)c3nc2c1Br", "note": "[HP 45, 2,4-Dibromo-3-(ethylthio)-6-methylphenazin-1-ol]", "values": [
      {"measurement": "MIC", "setting": "[3]", "result": "0.31 to 0.63", "unit": "µM"}
    ]},
    {"smiles": "Cc1cccc2nc3c(O)c(Br)c(Cl)c(Br)c3nc12", "note": "[HP 29, 2,4-Dibromo-3-chloro-6-methylphenazin-1-ol]", "values": [
      {"measurement": "selectivity index (SI)", "setting": "J774 macrophages", "result": "> 2000"},
      {"measurement": "induction of iron starvation (upregulation of iron uptake genes)", "setting": "[4]", "result": "induce rapid iron starvation; also recorded: rapidly induce iron starvation"},
      {"measurement": "MIC", "setting": "[3]", "result": "0.06 to 0.12", "unit": "µM"},
      {"measurement": "MICs against all Gram-positive strains in the panel", "setting": "[5]", "result": "submicromolar"}
    ]},
    {"smiles": "CN[C@@H]1[C@H](O[C@H]2[C@H](O[C@H]3[C@H](O)[C@@H](O)[C@H](N=C(N)N)[C@@H](O)[C@@H]3N=C(N)N)O[C@@H](C)[C@]2(O)C=O)O[C@@H](CO)[C@H](O)[C@H]1O", "note": "[streptomycin]", "values": [
      {"measurement": "MIC", "setting": "[6]", "result": 1.32, "unit": "µM"}
    ]},
    {"smiles": "Oc1c(Br)c(Cl)c(Br)c2nc3c(Cl)cc(Cl)cc3nc12", "note": "[HP 34, 2,4-Dibromo-3,6,8-trichlorophenazin-1-ol]", "values": [
      {"measurement": "MIC", "setting": "[3]", "result": "0.47 to 1.25", "unit": "µM"}
    ]},
    {"smiles": "c1ccc(CN(CCN(Cc2ccccn2)Cc2ccccn2)Cc2ccccn2)nc1", "note": "[TPEN, N,N,N′,N′-tetrakis(2-pyridinylmethyl)-1,2-ethanediamine]", "values": [
      {"measurement": "upregulation of iron uptake genes", "setting": "[2]", "result": "do not upregulate"}
    ]}
  ]
}
